Read-outs that look alike come from different tables or passages of the source.
Experiments:
[1] = Toxicity to killifish (TLm48), Test example 1; assay type: in vivo, Oryzias latipes; conditions: for selectivity ratio: in vivo, TLm48 divided by concentration in water at green rice leafhopper LC50, read-out: Safety coefficient to fishes (a)/(b); for LC50 at 48 h: water, killifish, medium tolerance limit, read-out: Toxicity to fishes TLm48 (a)
Protocol: Toxicity to killifish (Oryzias latipes) was tested accordig to the test method for toxicity to fishes described in Notification B No. 2735 of the Ministry of Agriculture and Forestry (Nov. 25, 1965). Namely, each of the present compounds (1), (2), (4), (5), (6), (8), (9), (11) and reference compounds was dissolved or suspended in "Tween 80" and diluted successively with dechlorinated tap water. Ten killifish (0.2-0.3 g per fish) were released in a 10-liter glass vessel containing 5 liters of each preparation.
In order to make it clearer that the present compounds have a low toxicity to fishes as well as a high insecticidal activity, a safety coefficient to fishes was calculated from the test results of toxicity to fishes and insecticidal activity. [formula]
A detailed explanation will be given to a method of how to calculate the safety coefficient. In the case of green rice leafhoppers, calculation was based on the concentration of active ingredient in water obtained by applying a test solution containing the active ingredient in an amount corresponding to LC50 (ppm) to a flooded paddy field 5 cm deep at a rate of 100 liter/10 are, provided that all the active ingredient applied entered the water.
For example, the safety coefficient to fishes of the present compound (1) is calculated as follows: The quantity of water in a flooded paddy field 5 cm deep and 10 are in area is 50 tons; when a test solution containing the active ingredient in an amount corresponding to LC50 (ppm) is added to the paddy field at a rate of 100 liter/10 are the concentration of the active ingredient in water (hereinafter referred to as (b)) is 0.008 pp; as the toxicity to fishes [TLm48 (ppm)] (hereinafter referred to as (a)) is >2.0 ppm, said coefficient can be calculated by dividing (a) by (b). In this case, the coefficient is >250, which means that the present compound (1) has a safety higher than 250-fold.

[2] = test system: green rice leafhopper (Nephotettix cincticeps), R-strain; assay: Insecticidal activity against green rice leafhopper, sprayed rice plants, Test example 1; assay type: in vivo; conditions: green rice leafhopper female adults, spray on rice plant, 26° C., 24 hours
Protocol: The emulsifiable concentrates of the present compounds and reference compounds prepared in Preparation example 1 were each formulated into test solutions having four different concentrations of active ingredient between 500 ppm and 0.5 ppm. Each test solution was sprayed on a rice plant in a 180-ml plastic cup which had elapsed one month after sowing, at a rate of 15 ml/2 cups by means of a turn table. After air-drying, the rice plate was covered with a wire-screen cage, and 15 female adults of green rice leafhopper (Nephotettix cincticeps) (a strain resistant to carbamates and organo-phosphates, hereinafter referred to as R-strain) were liberated therein. The plant was placed in an artificial climate chamber kept at 26° C. After 24 hours, the dead and alive were examined. The median lethal concentratin [LC50 (ppm)] was calculated from the mortality determined by 3 replications. […]

[3] = test system: carmine mites (Tetranychus cinnabarinus); assay: Damage to rice plants by carmine mites, Test example 4; assay type: in vivo; conditions: 500 ppm spray, after 10 days
Protocol: The emulsifiable concentrate of each of the present compounds (3), (5), (9) and (11) prepared in Preparation example 1 was diluted with water so that the concentration of the active ingredient was 500 ppm. The dilute liquor was thoroughly sprayed on rice plants (grown in a 1/10,000 are Waner's pot) on which carmine mites (Tetranychus cinnabarinus) in all stages were made parasitic.

[4] = test system: housefly (Musca domestica); assay: Housefly mortality, treated filter paper with bait, Test example 7; assay type: in vivo; conditions: 0.7 ml on filter paper, housefly female adults, 48 hours
Protocol: The emulsifiable concentrate obtained in preparation Example 1 was diluted 200 times with water (corresponding to 500 ppm of the active ingredient). On the bottom a polyethylene cup of 5.5 cm in diameter was placed a piece of filter paper of the same size, and 0.7 ml of the above dilute liquor was dropped on the filter paper. Sucrose (30 mg) was placed on the paper as bait. Thereafter, 10 housefly female adults (Musca domestica) were liberated in the cup which was then covered with a lid. After 48 hours, the dead and alive were counted to obtain mortality (4 replications).

[5] = test system: CSMA strain housefly (Musca domestica); assay: Topical application to housefly adults, Test example 8; assay type: in vivo; conditions: topical to ventral thorax, 0.5 μl/adult, female adults, 24 hours
Protocol: The present compounds as below and reference compounds were each diluted with acetone into test solutions having four different concentrations of active ingredient. Each test solution was topically applied to the ventral throrax of CSMA strain housefly female adults (Musca domestica), at a rate of 0.5 μl/adult by means of a microapplicator.
The adults were then liberated in a polyethylene cup and fed with milk, sugar and water. After 24 hours, the dead and alive were observed. The median lethal dosage (LD50 μg/adult) was obtained from the morality (3 replications).

[6] = test system: killifishes (Oryzias latipes); assay: Simulated paddy field box test, killifish survival, Test example 6; assay type: in vivo; conditions: wettable powder, 100 ppm, 100 liter/10 are, water depth 5 cm, after 48 hours
Protocol: (§1) The wettable powder of each of the present compounds (1), (3), (5), (6) and (11) prepared in Preparation example 4 was diluted with water so that the concentration of active ingredient was 100 ppm. Soil was placed in a plastic box [5 m×5 m×2 m (deep)] to a level of 50 cm from the bottom, and rice plants about 50 cm high were transplanted at invervals of 50 cm. Water was then placed in the box so that water depth was 5 cm, and 20 killifishes (Oryzias latipes) were liberated therein. Thereafter, the above dilute solution was sprayed on the box at a rate of 100 liter/10 are. The solution fell on the rice plants as well as on the water surface.
(§2) One hour after treatment, 100 female adults of green rice leafhopper (Nephotettix cincticeps) were liberated in the box which was immediately covered with a net.

[7] = test system: yellow fever mosquito (Aedes aegypti); assay type: in vivo; conditions: 50 mg of granules (Preparation example 6) in 100 ml water, full grown larvae, after 24 hours
Protocol: Fifty milligrams of each of the granules of the present compounds (5) and (11) obtained in Preparation example 6 was placed in a 100-ml beaker containing 100 ml of distilled water, and 30 full grown larvae of yellow fever mosquito (Aedes aegypti) were liberated therein. After 24 hours, 100% of the larvae could be killed.

[8] = test system: green rice leafhopper (Nephotettix cincticeps); assay: Simulated paddy field box test, green rice leafhopper, Test example 6; assay type: in vivo; conditions: wettable powder, 100 ppm, 100 liter/10 are, after 48 hours
Protocol: as §1, §2

[9] = test system: green rice leafhopper (Nephotettix cincticeps); assay: Residual effect test, Text example 5; assay type: in vivo; conditions: 20 cc per pot, 24 hours
Protocol: The emulsifiable concentrate of each of the present compounds (5) and (11) prepared in Preparation example 1 was diluted with water so that the conentration of active ingredient was 400 ppm. Thereafter, 20 cc of the dilute solution was sprayed on rice plants grown in a 1/10,000 are Wagner's pot. The rice plants were air-dried and covered with a wire-screen cage, and 15 female adults of green rice leafhopper (Nephotettix cincticeps) were liberated therein. After 24 hours, the dead and alive were examined to obtain mortality. In order to examine the residual effect, the pot was then left as it was for 7 days, and the test insects were liberated in the same manner as above. After 24 hours, the mortality was examined. The experiment was carried out in a greenhouse and the number of replications was three.

SMILES | selectivity ratio [1] | LC50 at 48 h [1] [µg/mL] | LC50 [2] [ppm] | mortality at 500 ppm [4] [%] | LD50 [5] [μg/adult] | other results
CC1(C)[C@H](C(=O)OC(C#N)c2ccc(F)c(Oc3ccc(Br)cc3)c2)[C@@H]1C(Br)C(Br)(Br)Br (stereo partly drawn) [compound (4), 3-(4-Bromophenoxy)-4-fluoro-α-cyanobenzyl d-cis-2,2-dimethyl-3-(1,2,2,2-tetrabromoethyl)cyclopropanecarboxylate] | > 154 | > 2 | 6.3 | – | – | –
CC1(C)[C@H](C(=O)OC(C#N)c2ccc(F)c(Oc3ccc(Cl)cc3)c2)[C@H]1C(Br)C(Cl)(Cl)Br (stereo partly drawn) [compound (9), 3-(4-Chlorophenoxy)-4-fluoro-α-cyanobenzyl d-trans-2,2-dimethyl-3-(1,2-dibromo-2,2-dichloroethyl)cyclopropanecarboxylate] | > 333 | > 1 | 1.5 | 100 | 0.018 | damage to rice plants by carmine mites [3]: the spreading of the damage could be prevented
CC1(C)C(C(=O)OC(C#N)c2cccc(Oc3ccccc3)c2)C1C(Br)C(Cl)(Cl)Br (stereo not drawn) [(A), reference compound] | 50 | – | 5.0 | – | – | –
CC1(C)C(C(=O)OC(C#N)c2ccc(F)c(Oc3ccc(Br)cc3)c2)C1C(Br)C(Cl)(Cl)Br (stereo not drawn) [(11), 3-(4-bromphenoxy)-4-fluoro-α-cyanobenzyl 2,2-dimethyl-3-(1,2-dibromo-2,2-dichloroethyl)cyclopropanecarboxylate] | > 200 | > 2 | 4.7 | – | – | damage to rice plants by carmine mites [3]: the spreading of the damage could be prevented; killifishes alive [6]: all of the killifishes were alive; larvae killed [7]: 100%; green rice leafhoppers alive [8]: no alive green rice leafhoppers were found; mortality at 400 ppm ([9]; insects liberated 7 days after treatment, read-out: Mortality, effect 7 days after treatment): 100%; mortality at 400 ppm ([9]; read-out: Mortality, effect immediately after treatment): 100%
CC1(C)C(C(=O)OC(C#N)c2cccc(Oc3ccc(Cl)cc3)c2)C1C(Br)C(Cl)(Cl)Br (stereo not drawn) [(C), reference compound] | – | – | – | – | 0.062 | –
CC1(C)C(C(=O)OC(C#N)c2ccc(F)c(Oc3ccc(Br)cc3)c2)C1C(Br)C(Br)(Br)Br (stereo not drawn) [compound (3), 3-(4-Bromophenoxy)-4-fluoro-α-cyanobenzyl 2,2-dimethyl-3-(1,2,2,2-tetrabromoethyl)cyclopropanecarboxylate] | – | – | – | – | – | damage to rice plants by carmine mites [3]: the spreading of the damage could be prevented; killifishes alive [6]: all of the killifishes were alive; green rice leafhoppers alive [8]: no alive green rice leafhoppers were found
CC1(C)[C@H](C(=O)OC(C#N)c2ccc(F)c(Oc3ccc(Cl)cc3)c2)[C@H]1C(Br)C(Cl)(Cl)Br (relative stereo) [compound (6), 3-(4-Chlorophenoxy)-4-fluoro-α-cyanobenzyl dl-trans-2,2-dimethyl-3-(1,2-dibromo-2,2-dichloroethyl)cyclopropanecarboxylate] | > 200 | > 1 | 2.7 | 100 | 0.031 | killifishes alive [6]: all of the killifishes were alive; green rice leafhoppers alive [8]: no alive green rice leafhoppers were found
CC1(C)[C@H](C(=O)OC(C#N)c2ccc(F)c(Oc3ccc(Cl)cc3)c2)[C@@H]1C(Br)C(Cl)(Cl)Br (relative stereo) [compound (7), 3-(4-Chlorophenoxy)-4-fluoro-α-cyanobenzyl dl-cis-2,2-dimethyl-3-(1,2-dibromo-2,2-dichloroethyl)cyclopropanecarboxylate] | – | – | – | 100 | – | –
CC1(C)C(C(=O)OC(C#N)c2cccc(Oc3ccc(Br)cc3)c2)C1C(Br)C(Cl)(Cl)Br (stereo not drawn) [(D), reference compound] | – | – | – | – | 0.063 | –
CC1(C)C(C=C(Cl)Cl)C1C(=O)OC(C#N)c1ccc(F)c(Oc2ccccc2)c1 (stereo not drawn) [(B), reference compound] | < 2 | < 0.01 | 2.5 | – | – | –
CC1(C)C(C(=O)OC(C#N)c2ccc(F)c(Oc3ccc(Cl)cc3)c2)C1C(Br)C(Br)(Br)Br (stereo not drawn) [compound (8), 3-(4-Chlorophenoxy)-4-fluoro-α-cyanobenzyl 2,2-dimethyl-3-(1,2,2,2-tetrabromoethyl)cyclopropanecarboxylate] | > 83 | > 1 | 5.8 | 100 | – | –
CC1(C)[C@H](C(=O)OC(C#N)c2ccc(F)c(Oc3ccc(Cl)cc3)c2)[C@@H]1C(Br)C(Cl)(Cl)Br (stereo partly drawn) [compound (10), 3-(4-Chlorophenoxy)-4-fluoro-α-cyanobenzyl d-cis-2,2-dimethyl-3-(1,2-dibromo-2,2-dichloroethyl)cyclopropanecarboxylate] | – | – | – | 100 | 0.030 | –
CC1(C)[C@H](C(=O)OC(C#N)c2ccc(F)c(Oc3ccc(Br)cc3)c2)[C@@H]1C(Br)C(Cl)(Cl)Br (relative stereo) [compound (2), 3-(4-Bromophenoxy)-4-fluoro-α-cyanobenzyl dl-cis-2,2-dimethyl-3-(1,2-dibromo-2,2-dichloroethyl)cyclopropanecarboxylate] | > 167 | > 2 | 6.0 | – | – | –

From patent publication US4376785A, “Cyclopropanecarboxylates and a low fish toxic insecticide and/or acaricide containing them” (priority 1980, dated 1983)
